Assay results taken from patent publication US20170239283A1, “USE OF STING AGONISTS TO TREAT VIRALLY-INDUCED AND PRE-MALIGNANT GROWTHS” (Providence Health & Services - Oregon, priority 2016, published 2017).

What was measured:
[1] = tested on: Murine bone marrow-derived macrophages; assay: M1/M2 differentiation of macrophages, Western blotting for iNOS and arginase I; format: cell-based; settings: 24 hours treatment, then IFNγ (20 ng/ml) or IL-4 (20 ng/ml)
Protocol: FIG. 5 is a digital image of a Western blot for iNOS, Arginase I, and GAPDH in murine bone marrow-derived macrophages treated with compounds targeting TLR4 (LPS), STING (CDA), NOD2 (PGNECndss), TLR7 (Imiquimod), TLR9 (class A CpG), or RIGI (ppp5′dsRNA), then treated with IFNγ (20 ng/ml) or IL-4 (20 ng/ml).
Murine bone marrow-derived macrophages were treated for 24 hours with a range of immunological adjuvants targeting STING (CDA), NOD2 (PGNECndss), TLR7 (imiquimod), TLR9 (class A CpG), or RIGI (ppp5′dsRNA), then treated with IFNγ (20ng/ml) or IL-4 (20ng/ml) to direct M1 or M2 differentiation, respectively. Ligation of TLR4 (LPS) was a positive control. M1 differentiation was distinguished by expression of iNOS, and M2 differentiation by expression of arginase I as measured by Western blotting.

papilloma [2] = format: in vivo, mice; settings: for papilloma size: larger 3-15 mm papilloma, 25 μg injected on d0, d1, d7 and d8
From the text: Pdx-Cre^+/− (Stock190 014647, Jackson Laboratories, Bar Harbor, Me.), Kras^(G12D)+/− (Stock#008179, Jackson Laboratories), and Trp53^(R172H)+/− (Stock#01XM2, NCI Fredrick Mouse Repository) mice were crossed to generate Pdx-Cre^+/− Kras ^(G12D)+/− Trp53^(R172H)+/− that generate pancreatic tumors (Hingorani et al., Cancer Cell 7:469-483, 2005). At variable penetrance, mice develop papilloma of the face and anogenital region (Hingorani et al., Cancer Cell 7:469-483, 2005; Gades et al., Comp. Med. 58:271-275, 2008). Mice bearing papilloma with no evidence of pancreatic tumors and less than 90 days of age were accrued to this study. Masses were treated by injection of 25 μg of c-di-CDG (Invivogen, San Diego, Calif., Catalog No. tlrl-naldg), Imiquimod (Invivogen) or PBS vehicle.
STING ligands were administered into the papilloma by direct injection with a total dose of 25 μg administered in a 25 μl injection volume. In the control case, 25 μg of Imiquimod was administered using the same technique. For larger papillomas, the injection was split between different sites within the same growth. The total dose to the growth remained 25 μg in each case. The animals were retreated on day 7 with a second cycle of injections.
Rapid alterations in small papilloma to resemble normal skin were observed within 18 hours of treatment (FIGS. 2A and B). In pilot studies, mice bearing papilloma were randomly assigned to treatment with the STING ligand c-di-GMP (CDG) or PBS vehicle control. In an example of a mouse with two small papilloma on the face, one was treated by direct injection of CDG, and the other given vehicle control (FIG. 2A, left). The CDG-injected papilloma rapidly reverted to normal skin within 18 hours (FIG. 2A, right). […] Injection of STING ligand into histologically normal skin at distant sites or in normal mice had no observable effect (not shown).
In addition, very large papilloma was treated with two cycles of treatment separated by 1 week, resulting in dramatic tumor regression (FIG. 3A). […] We tested treatment of larger, 3-15 mm papilloma with STING ligands. […] Therefore, we developed a treatment course consisting of injections on d0 and d1, and again on d7 and d8 as the papilloma decreased in size (FIG. 3B). Mice were randomized to receive CDG, to conventional treatment with the TLR7 ligand imiquimod, or PBS vehicle.

papilloma [3] = assay: CD3+ T cell infiltration and histology of treated papilloma; format: in vivo, mice; settings: for infiltrating CD3+ T cells in papilloma: 24 hours after injection of 25 μg
Protocol: FIGS. 4A-C are a series of digital images showing infiltration of T cells following treatment with STING ligand. […] Sections were stained for CD3 and DAPI nuclear counterstain. […] Both papilloma sites were harvested 24 hours later and stained for CD3 and DAPI nuclear counterstain on the i) treated and ii) untreated opposite side papilloma.
To investigate the effect of treatment on T cell infiltration, which we and others have shown play a role in clearance of advanced cancers following administration of STING ligands (Baird et al., Cancer Res. 76:50-61, 2016; Corrales et al., Cell Rep. 11:1018-1030, 2015), papilloma were stained for infiltrating CD3^+ T cells.

cervical dysplasia = settings: added to excisional therapies, randomized clinical trials; cited from earlier work

Molecule	M1 (iNOS) / M2 (arginase I) differentiation of macrophages [1]	papilloma size (papilloma [2])	infiltrating CD3+ T cells in papilloma (papilloma [3])	rate of recurrence of cervical dysplasia (cervical dysplasia)	other results
Nc1ncnc2c1ncn2[C@@H]1O[C@@H]2COP(=O)(O)O[C@H]3[C@@H](O)[C@H](n4cnc5c(N)ncnc54)O[C@@H]3COP(=O)(O)O[C@H]2[C@H]1O [CDA, cyclic diadenylate monophosphate]	prevented M2 differentiation by IL-4 without driving M1 differentiation				
Nc1nc2c(ncn2[C@@H]2O[C@@H]3COP(=O)(O)O[C@H]4[C@@H](O)[C@H](n5cnc6c(=O)[nH]c(N)nc65)O[C@@H]4COP(=O)(O)O[C@H]3[C@H]2O)c(=O)[nH]1 [CDG, cyclic diguanylate monophosphate]		significantly decreased papilloma size	CD3^+ T cells were found associated with the normalized skin epithelium		toxicity (papilloma [2]; 25 μg direct injection): non-toxic at these doses; effect of a single injection on larger papilloma (papilloma [2]; 3-15 mm papilloma, single injection): rapid loss of papilloma around the injection site, but these did not fully regress; appearance of injection site (papilloma [2]; 18 hours after injection into small papilloma): slight reddening; complete regression of papilloma (papilloma [2]; larger papilloma, injections on d0, d1, d7 and d8): complete regression of some papilloma; time for injected small papilloma to revert to normal skin (papilloma [2]; mouse with two small papilloma on the face, direct injection of 25 μg): ≤ 18 h; regression of experimental papilloma (papilloma [2]; small papilloma, direct injection of 25 μg): rapid, site-specific regression of experimental papilloma; T cells in normalized skin (papilloma [3]; 14 days following treatment): enriched in the normalized skin; T cell infiltration in treated versus untreated papilloma of the same mouse (papilloma [3]; mice with more than one papilloma, one treated, 24 hours): T cell infiltration and control only in the treated papilloma
CC(C)Cn1cnc2c(N)nc3ccccc3c21 [imiquimod]	can drive macrophages into either M1 or M2 differentiation	did not significantly affect the size of the papilloma	Few to no T cells were detected	neither approach impacts the rate of recurrence	
interferon alpha				neither approach impacts the rate of recurrence	
